Test results: patent publication US7875607B2, “7,8-bicycloakyl-chroman derivatives” (Ampere Life Sciences, Inc., priority 2004, dated 2011)

Experiments:
[1] = tested on: LTB4 production in heparinized whole blood; test: Inhibition of LTB4 production in blood; format: cell-based, rat or mouse; settings: 20 μM A23187, read-out: EC50, protection against LTB4
Method in brief: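 Heparinized rat or mouse whole blood preincubated with test agent 10 min at 37°C, then stimulated with calcium ionophore A23187 (20 μM final) for 30 min. Plasma methanol-precipitated and LTB4 measured by EIA; percent inhibition versus vehicle used to derive IC50.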

[2] = biological target: T1, porcine leukocyte 12/15-lipoxygenase (Sus scrofa, UniProt P16469); test: 12/15-Lipoxygenase enzyme assay; format: biochemical; settings: 70 μM arachidonic acid, pH 7.4; read-out: IC50, inhibition of 12/15-Lipoxygenase
T1 sequence (P16469 1-663): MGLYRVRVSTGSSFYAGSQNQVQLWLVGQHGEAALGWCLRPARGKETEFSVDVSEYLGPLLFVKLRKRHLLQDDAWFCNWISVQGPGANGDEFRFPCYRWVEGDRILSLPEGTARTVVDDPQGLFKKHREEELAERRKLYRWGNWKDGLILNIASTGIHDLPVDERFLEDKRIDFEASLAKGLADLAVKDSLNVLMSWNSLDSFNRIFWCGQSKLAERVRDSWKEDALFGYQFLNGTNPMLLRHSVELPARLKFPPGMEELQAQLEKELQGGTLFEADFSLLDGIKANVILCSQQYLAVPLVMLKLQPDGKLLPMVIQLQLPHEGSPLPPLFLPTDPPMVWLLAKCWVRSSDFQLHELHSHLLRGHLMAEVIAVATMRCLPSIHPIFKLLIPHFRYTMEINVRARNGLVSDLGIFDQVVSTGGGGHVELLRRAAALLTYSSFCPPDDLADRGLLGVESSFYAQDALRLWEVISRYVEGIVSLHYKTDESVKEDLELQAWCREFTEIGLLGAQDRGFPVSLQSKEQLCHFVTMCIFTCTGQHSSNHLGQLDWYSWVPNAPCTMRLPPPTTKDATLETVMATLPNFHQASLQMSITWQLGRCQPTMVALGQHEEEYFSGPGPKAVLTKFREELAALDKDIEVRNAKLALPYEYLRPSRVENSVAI
Experimental: This procedure was used for measuring the enzymatic activity of porcine leukocyte 12/15-lipoxygenase using a calorimetric method based on the ferric oxidation of xylenol orange.
Porcine Leukocyte 12/15-lipoxygenase (Cayman Cat # 60300) was used in this assay. Test compound and/or vehicle was added to 1.3U 12/15-lipoxygenase in 50 mM Tris-HCl buffer, pH 7.4. The reaction was initiated by addition of 70 μM arachidonic acid in Tris-HCl buffer, pH 7.4, and terminated after a 10 minute incubation at room temperature by addition of FOX reagent (25 mM sulphuric acid, 100 μM xylenol orange, 100 μM iron (II) sulphate, methanol:water 9:1). The yellow color of acidified xylenol orange was converted to a blue color by the lipid hydroperoxide-mediated oxidation of Fe^2+ ions and the interaction of the resulting Fe^3+ ions with the dye. The complex was allowed to form during a 1 hour incubation at room temperature with shaking. Absorbance of the Fe^3+ complex was then measured at […] using a spectrophotometer.
Negative controls contained enzyme during the incubation step but substrate was not added until after the FOX reagent.
Compounds are screened at 5 concentrations in triplicate starting at 10 μM

[3] = biological target: T2, human recombinant 5-lipoxygenase (Homo sapiens, UniProt P09917); test: 5-Lipoxygenase enzyme assay; format: biochemical; settings: 70 μM arachidonic acid, pH 7.4
T2 construct: purchased Cayman 60402
T2 sequence (P09917 1-674): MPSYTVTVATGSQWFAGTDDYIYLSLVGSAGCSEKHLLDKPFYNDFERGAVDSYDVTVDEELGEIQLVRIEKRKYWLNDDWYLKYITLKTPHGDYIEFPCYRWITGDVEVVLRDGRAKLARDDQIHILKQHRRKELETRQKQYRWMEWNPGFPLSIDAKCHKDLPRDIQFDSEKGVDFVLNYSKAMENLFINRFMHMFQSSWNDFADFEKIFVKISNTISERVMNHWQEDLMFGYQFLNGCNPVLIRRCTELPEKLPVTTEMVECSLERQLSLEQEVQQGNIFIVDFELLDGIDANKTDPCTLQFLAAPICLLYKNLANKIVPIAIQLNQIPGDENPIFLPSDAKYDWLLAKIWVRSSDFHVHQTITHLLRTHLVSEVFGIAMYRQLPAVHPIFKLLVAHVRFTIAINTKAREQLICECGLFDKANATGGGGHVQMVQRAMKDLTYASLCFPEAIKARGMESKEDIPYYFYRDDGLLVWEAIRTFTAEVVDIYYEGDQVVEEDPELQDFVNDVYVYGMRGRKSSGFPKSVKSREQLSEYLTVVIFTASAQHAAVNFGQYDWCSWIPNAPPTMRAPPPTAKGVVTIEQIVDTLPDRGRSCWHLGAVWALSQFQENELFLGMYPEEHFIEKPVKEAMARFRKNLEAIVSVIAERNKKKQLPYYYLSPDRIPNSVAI
Method in brief: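 Human recombinant 5-LO (0.5 U) with compound in 50 mM Tris-HCl pH 7.4 reacted with 70 μM arachidonic acid for 10 min at room temperature. Hydroperoxide formation was read via FOX xylenol orange complex at 620 nm after 1 h; compounds at 5 concentrations from 10 μM, in triplicate.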

SMILES | EC50 [1] | IC50 [2] | IC50 [3]
CC1(CCCSc2nccs2)CCc2cc(O)c3c(c2O1)C1CCC3C1 (stereo not drawn) [2-Methyl-2-[3-(thiazol-2-ylsulfanyl)-propyl]-3,4,7,8,9,10-hexahydro-7,10-methano-2H-benzo[h]chromen-6-ol] | ≤ 10 µM | ≤ 10 µM | ≤ 5 µM
CC(C)CSCCCC1(C)CCc2cc(O)c3c(c2O1)C1CCC3C1 (stereo not drawn) [2-(3-isobutylsulfanyl-propyl)-2-methyl-3,4,7,8,9,10-hexahydro-7,10-methano-2H-benzo[h]chromen-6-ol] | ≤ 10 µM | ≤ 10 µM | –
CC1(CCCCl)CCc2cc(O)c3c(c2O1)C1CCC3C1 (stereo not drawn) [2-(3-Chloro-propyl)-2-methyl-3,4,7,8,9,10-hexahydro-7,10-methano-2H-benzo[h]chromen-6-ol] | ≤ 10 µM | – | ≤ 5 µM
CC1(C)C=Cc2cc(O)c3c(c2O1)C1CCC3CC1 [2,2-Dimethyl-7,8,9,10-tetrahydro-7,10-ethano-2H-benzo[h]chromen-6-ol] | – | ≤ 10 µM | ≤ 5 µM
CC1(C)CCc2cc(O)c3c(c2O1)C1CCC3CC1 [2,2-Dimethyl-3,4,7,8,9,10-hexahydro-7,10-ethano-2H-benzo[h]chromen-6-ol] | ≤ 10 µM | ≤ 10 µM | ≤ 5 µM
